Here are results for six molecules from US20100034766A1, “Malodor Counteracting Compositions” (Givaudan SA, priority 2006, published 2010).

A short description of experiment [1]: Malodor reduction potential: headspace GC/MS determination of hexyl amine remaining. To be noted: for % Reduction of hexyl amine: 10 ul hexyl amine. The method, then:
A 1 liter glass headspace collection jar had placed inside it a 25 ml stoppered glass container which contained 0.5 g of a test compound/mixture of compounds as indicated in Table 3. 10 ul of hexyl amine as a representative malodor was injected into the headspace jar. This was left for 15 minutes at 25° C. to equilibrate. One ml/minute of the headspace was drawn for one minute through a Tenax™ headspace trap. The trap was removed and analyzed to determine the initial concentration of the malodor. The glass stopper was removed from the container and the test component and the malodor were left in contact for 60 minutes at 25° C. One ml/minute of the headspace was drawn for one minute through a Tenax™ headspace trap to determine the amount of malodor remaining. The Tenax traps were thermally desorbed into an Agilent 6890 GC/MS to analyze the quantity of hexyl amine. The results are shown in Table 3 below: Following the same procedure described in Example 1, compounds according to formula (B) were mixed with an equal amount of citronellyl methylcrotonate. 0.5 g of the resulting mixture was tested against 10 ul hexyl amine as a representative malodor. Following the same procedure described in Example 1,5-(1-(3,3-dimethyl-cyclohexyl)ethoxy)-5-methylhexan-2-one (compound 10) was mixed with an equal amount of compounds of formula (A). 0.5 g of the resulting mixture was tested against 10 ul hexyl amine as a representative malodor.

Experiment [2] in a line: Sensory test of axilla malodor reduction on cotton pads, expert panel, Labeled Magnitude Scale. To be noted: Example 4, Table 6; 0.4 g of 10% ethanol solution of test mixture on pad with 0.5 g of 1% synthetic axilla malodor; expert panel of 5, LMS. Here is the method:
Test mixtures of a compound of formula (A) and a compound of formula (B) in the ratio as given in Table 6 (10% ethanol solution) of each was prepared. 0.5 g of a 1% ethanol solution of synthetic axilla malodor was placed onto cotton pads. 0.4 g of the ethanol solution of the test mixtures, respectively, was placed on each axilla malodor treated cotton pad. One pad was left untreated as the control. Each pad was allowed to dry for 15 minutes. The test cotton pads were randomized, and an expert panel of 5 was used to determine the intensity of the malodor. Each panelist was asked to check a box that represented the strength of the axilla malodor using a Labeled Magnitude Scale (LMS) (Barry G. Green, Pamela Dalton, Beverly Cowart, Greg Shaffer, Krystyna Rankin and Jennifer Higgins. Evaluating the Labeled Magnitude Scale for Measuring Sensations of Taste and Smell. Chemical Senses. Vol. 21, pp 323-334, 1996).
The % reduction of malodor was calculated by:
% Reduction=(Mean LMS Control−Mean LMS Test)/Mean LMS Control
A Givaudan fragrance composition containing solvent dipropylene glycol at 20% (Composition A) and a fragrance composition (Composition B) wherein 10% dipropylene glycol are replaced by 10% of a mixture of compound 4 and geranyl:crotonate (1:9); were compared for MOC efficacy using the sensory test described in Example 4.

[3] abbreviates: Example 1, Table 3, 0.5 g test compound/mixture, 60 minutes contact at 25° C., headspace.
Setting [4] is: Example 3, Table 5, compound 10 mixed with equal amount of formula (A) compounds, 0.5 g.

Molecules are shown by their SMILES. Structures can show the parent of a compound that is named as a salt.

As for `CCCCCCOC(=O)/C=C/C(=O)OCCCCCC` [dihexyl fumarate], the “% Reduction of hexyl amine” value was 68.7% in experiment [1] (setting [3]) and 78.1% in experiment [1] (setting [4]).

Turning to `O=C(C=Cc1ccccc1)OCc1ccccc1` [benzyl cinnamate], the “% Reduction of hexyl amine” value in experiment [1] (setting [3]) was 23.5%; in experiment [1] (setting [4]), 62.1%.

`C/C=C/C(=O)OC/C=C(\C)CCC=C(C)C` [geranyl crotonate]: the “% Reduction of hexyl amine” value in experiment [1] (setting [3]) came to 64.7%; in experiment [1] (setting [4]), 71.0%.

With `CCCCC(CC)COC(=O)C=Cc1ccc(OC)cc1` (stereo not drawn) [Octyl methyl cinnamate, 2-ethyl-hexyl-para-methoxy-cinnamate], the “% Reduction of hexyl amine” value in experiment [1] (setting [3]) was found to be 54.1%; in experiment [1] (setting [4]), 58.7%.

Regarding `CC(C)=CCCC(C)CCOC(=O)C=C(C)C` (stereo not drawn) [citronellyl methylcrotonate, 3,7-dimethyloct-6-enyl 3-methylbut-2-enoate], in experiment [2], the “% Reduction of axilla malodor” value is reported as 51.0%. Further, the “% Reduction of hexyl amine” value in experiment [1] (setting [3]) was determined as 53.6%; in experiment [1] (Example 2, Table 4, formula (B) compounds mixed with equal amount of citronellyl methylcrotonate, 0.5 g) it was 61.3%.

Consider `CC(OC(C)(C)COC(=O)C1CC1)C1CCCC(C)(C)C1` (stereo not drawn) [compound 4, cyclopropanecarboxylic acid 2-[1-(3,3-dimethylcyclohexyl)ethoxy]-2-methylpropyl ester], for which the “effect on the effectiveness of the class A compound (hexyl amine reduction)” value in experiment [1] (compound 4 in combination with a class A compound, Table 3) is “significantly increases the effectiveness”.
